Reference: patent US4914198A, “Novel substance UCY1003 and process for preparing the same” (priority 1985, dated 1990)
In brackets after ≈: the same amount, converted by molar mass.

Tests used:
[1] = test system: male dd mice (number of writhes); experiment: Analgesic activity: acetic acid-induced writhing in mice; format: in vivo; settings: for Inhibition Ratio: i.p., 60 min before acetic acid, N = 4
Procedure: In this experiment, 4 male dd mice wieghing 20±1 g were used as one group for examination of analgesic activity. Sixty minutes after intraperitoneal administration of UCY1003 to each animal, 0.2 ml of a 0.7% acetic acid solution was intraperitoneally administered to the animal. Starting 10 minutes after the administration of acetic acid, the number of writhes occurred in 5 minutes was counted. Inhibition ratio in comparison with control group was calculated by the following equation. ED50 value was calculated in accordance with Litchfield and Wilcoxon. [formula] A: Average number of writhes of control group B: Average number of writhes of test group

[2] = test system: Escherichia coli ATCC 26; experiment: Agar dilution method (pH 7), MIC; format: cell-based; settings: ATCC26
Description: (§1) Anti-bacterial activities of UCY1003 against various microorganisms measured by agar dilution method (pH 7) are shown in Table 3.

[3] = test system: Saccharomyces cerevisiae C-203; experiment: Agar dilution method (pH 7), MIC; format: cell-based; settings: C203
Description: as §1

[4] = test system: Salmonella typhosa ATCC 9992; experiment: Agar dilution method (pH 7), MIC; format: cell-based; settings: Salmonella enterica
Description: as §1

[5] = test system: Klebsiella pneumoniae ATCC 10031; experiment: Agar dilution method (pH 7), MIC; format: cell-based; settings: ATCC10031
Description: as §1

[6] = test system: Staphylococcus aureus ATCC 6538P; experiment: Agar dilution method (pH 7), MIC; format: cell-based; settings: ATCC6538P
Description: as §1

[7] = test system: Candida albicans ATCC 10231; experiment: Agar dilution method (pH 7), MIC; format: cell-based; settings: ATCC10231
Description: as §1

[8] = test system: Bacillus subtilis No. 10707; experiment: Agar dilution method (pH 7), MIC; format: cell-based
Description: as §1

[9] = test system: Male spontaneously hypertensive rats (SHR) of Okamoto-Aoki strain; experiment: Hypotensive activity: systolic blood pressure of conscious SHR, tail artery, plethysmographic apparatus; format: in vivo, rat (SHR; settings: for Blood Pressure after (90 min): 90 min after administration; for Blood Pressure after (90 min) / Blood Pressure Difference (before vs 90 min after administration) / Blood Pressure before: N = 3; for Blood Pressure after (90 min) / Blood Pressure before: mean ± S.E.; for Blood Pressure Difference (before vs 90 min after administration): a decrease; for Blood Pressure before: before administration (baseline)
Procedure: Male spontaneously hypertensive rats (SHR) of Okamoto-Aoki strain (body weight, 310-360 g) were used. Systolic blood pressure of conscious SHR was measured indirectly from the tail artery with a plethysmographic apparatus (Ueda Electric Works, USM-105R). Test compound UCY1003 was suspended in 0.3% sodium carboxymethylcellulose (CMC) solution and was intraperitoneally administered in a volume of 2 ml per kg of body weight.

[10] = Acute toxicity in mice; settings: mouse, in vivo, ip; single intraperitoneal administration, 5 ddY mice, 14 days observation, Beherns Karber's method
Procedure: UCY1003 was intraperitoneally administered once to each animal of the test group consisting of 5 ddY mice. […] The LD50 was determined by Beherns Karber's method to be more than 200 mg/kg.

SMILES: C=C(CCC1(C)OC2O[C@@H]3C[C@H]1[C@]21CC[C@@H]2[C@@]4(C)CC[C@H](O)C[C@@H]4C[C@@H]4O[C@@]42[C@H]31)C(C)C (stereo partly drawn) [UCY1003]
- Inhibition Ratio ([1]; 5 mg/kg): 17%
- Inhibition Ratio ([1]; 10 mg/kg): 52%
- Inhibition Ratio ([1]; 25 mg/kg): 52%
- Inhibition Ratio ([1]; 50 mg/kg): 83%
- Inhibition Ratio ([1]; 100 mg/kg): 95%
- ED50 ([1]; Mus musculus, ip, calculated in accordance with Litchfield and Wilcoxon): 17 mg/kg
- MIC [2]: > 100 µg/mL
- MIC [3]: 2 µg/mL (≈ 4.52 µM)
- MIC [4]: > 100 µg/mL
- MIC [5]: > 100 µg/mL
- MIC [6]: > 100 µg/mL
- MIC [7]: > 100 µg/mL
- MIC [8]: > 100 µg/mL
- Blood Pressure after (90 min) ([9]; 50 mg/kg, i.p.): 177 ± 14 mmHg
- Blood Pressure Difference (before vs 90 min after administration) ([9]; 50 mg/kg, i.p.): 18 ± 15 mmHg
- hypotension ([9]; 100 mg/kg, i.p.): caused hypotension
- Blood Pressure after (90 min) ([9]; 100 mg/kg, i.p.): 142 ± 9 mmHg
- Blood Pressure Difference (before vs 90 min after administration) ([9]; 100 mg/kg, i.p.): 45 ± 8 mmHg
- Blood Pressure before ([9]; 50 mg/kg i.p. group): 195 ± 8 mmHg
- Blood Pressure before ([9]; 100 mg/kg i.p. group): 187 ± 3 mmHg
- LD50 at 336 h [10]: > 200 mg/kg
